Here are results for two compounds from ChEMBL document CHEMBL4507319 (2021).

Holding throughout (settings): Compound concentration 1000.0 nM
Experiment [1] addresses Serine/threonine-protein kinase tousled-like 2 (Homo sapiens) (UniProt Q86UE8).
The target of experiment [2] is Bone morphogenetic protein receptor type-1B (Homo sapiens) (UniProt O00238).
Experiment [3] has as its target Dual specificity protein kinase CLK4 (Homo sapiens) (UniProt Q9HAZ1).
Experiment [4] concerns the target Mitogen-activated protein kinase kinase kinase 4 (Homo sapiens) (UniProt Q9Y6R4).
In experiment [5] the target is T1, Serine/threonine-protein kinase ULK3 (Homo sapiens) (UniProt Q6PHR2).
T1 sequence (whole entry): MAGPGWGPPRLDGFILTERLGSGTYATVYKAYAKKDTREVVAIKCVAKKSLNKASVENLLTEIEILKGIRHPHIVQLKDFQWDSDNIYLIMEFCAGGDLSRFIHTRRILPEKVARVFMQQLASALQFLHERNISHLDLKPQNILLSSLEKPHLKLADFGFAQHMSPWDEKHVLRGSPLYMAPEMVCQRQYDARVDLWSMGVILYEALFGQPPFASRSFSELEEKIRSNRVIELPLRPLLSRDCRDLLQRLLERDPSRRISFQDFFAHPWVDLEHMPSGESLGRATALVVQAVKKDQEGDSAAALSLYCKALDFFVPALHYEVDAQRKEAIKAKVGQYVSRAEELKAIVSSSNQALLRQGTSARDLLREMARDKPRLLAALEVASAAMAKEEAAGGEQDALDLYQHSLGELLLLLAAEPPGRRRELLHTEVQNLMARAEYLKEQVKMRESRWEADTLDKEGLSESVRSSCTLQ

The target in experiment [6] is T2, Phosphatidylinositol 3-kinase C2 domain-containing subunit gamma (Homo sapiens) (UniProt O75747).
T2 sequence (whole entry): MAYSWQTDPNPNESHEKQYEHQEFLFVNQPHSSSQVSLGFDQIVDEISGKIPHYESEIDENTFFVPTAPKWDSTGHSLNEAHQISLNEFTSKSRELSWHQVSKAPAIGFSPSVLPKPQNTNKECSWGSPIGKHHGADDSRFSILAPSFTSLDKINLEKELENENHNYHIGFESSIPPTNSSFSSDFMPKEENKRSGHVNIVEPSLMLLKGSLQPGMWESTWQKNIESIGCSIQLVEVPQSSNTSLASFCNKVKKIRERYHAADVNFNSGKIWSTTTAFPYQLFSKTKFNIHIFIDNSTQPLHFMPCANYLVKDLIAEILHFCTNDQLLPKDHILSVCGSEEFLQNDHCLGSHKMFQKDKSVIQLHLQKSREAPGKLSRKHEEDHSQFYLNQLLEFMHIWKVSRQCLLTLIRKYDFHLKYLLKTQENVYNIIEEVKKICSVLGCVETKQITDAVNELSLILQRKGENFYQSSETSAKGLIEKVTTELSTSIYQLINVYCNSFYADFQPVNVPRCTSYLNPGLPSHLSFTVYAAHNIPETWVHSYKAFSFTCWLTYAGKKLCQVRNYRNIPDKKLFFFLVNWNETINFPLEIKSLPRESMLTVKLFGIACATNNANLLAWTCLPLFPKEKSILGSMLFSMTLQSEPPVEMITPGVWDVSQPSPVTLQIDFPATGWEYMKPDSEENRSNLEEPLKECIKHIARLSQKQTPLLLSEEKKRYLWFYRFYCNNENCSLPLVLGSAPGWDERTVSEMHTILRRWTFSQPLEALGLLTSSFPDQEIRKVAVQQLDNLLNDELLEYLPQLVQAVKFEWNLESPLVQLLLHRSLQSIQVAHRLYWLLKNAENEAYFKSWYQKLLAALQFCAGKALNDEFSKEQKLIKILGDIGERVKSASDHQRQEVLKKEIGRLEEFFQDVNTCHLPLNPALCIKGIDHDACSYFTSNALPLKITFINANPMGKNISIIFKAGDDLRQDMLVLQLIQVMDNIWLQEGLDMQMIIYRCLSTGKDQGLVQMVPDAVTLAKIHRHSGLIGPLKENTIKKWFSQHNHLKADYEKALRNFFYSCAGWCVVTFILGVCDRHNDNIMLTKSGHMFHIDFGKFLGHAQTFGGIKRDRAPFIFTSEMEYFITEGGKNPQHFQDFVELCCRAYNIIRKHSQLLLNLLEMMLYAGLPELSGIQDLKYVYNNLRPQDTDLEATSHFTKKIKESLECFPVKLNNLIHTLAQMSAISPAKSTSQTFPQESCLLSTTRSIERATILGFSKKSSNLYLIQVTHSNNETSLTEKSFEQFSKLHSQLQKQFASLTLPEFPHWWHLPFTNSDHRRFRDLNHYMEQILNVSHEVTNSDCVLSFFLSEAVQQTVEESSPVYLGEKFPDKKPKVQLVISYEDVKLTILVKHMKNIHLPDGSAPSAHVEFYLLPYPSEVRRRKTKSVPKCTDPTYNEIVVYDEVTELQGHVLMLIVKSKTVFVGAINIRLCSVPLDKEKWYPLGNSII

The target of experiment [7] is MAP kinase-interacting serine/threonine-protein kinase 1 (Homo sapiens) (UniProt Q9BUB5).
MAP kinase-interacting serine/threonine-protein kinase 1 (Homo sapiens), sequence (Q9BUB5 whole entry, looked up): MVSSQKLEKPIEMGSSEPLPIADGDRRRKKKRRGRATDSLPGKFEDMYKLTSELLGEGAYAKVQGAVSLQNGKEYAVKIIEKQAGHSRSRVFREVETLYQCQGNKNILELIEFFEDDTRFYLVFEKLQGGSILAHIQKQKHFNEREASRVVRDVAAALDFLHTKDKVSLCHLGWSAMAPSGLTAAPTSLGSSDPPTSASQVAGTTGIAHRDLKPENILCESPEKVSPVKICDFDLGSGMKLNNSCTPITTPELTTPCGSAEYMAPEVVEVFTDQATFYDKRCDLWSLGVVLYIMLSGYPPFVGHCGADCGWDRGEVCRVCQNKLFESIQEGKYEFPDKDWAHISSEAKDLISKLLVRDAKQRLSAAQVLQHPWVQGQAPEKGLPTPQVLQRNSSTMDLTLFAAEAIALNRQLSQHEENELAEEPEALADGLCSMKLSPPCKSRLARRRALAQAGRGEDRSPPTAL
The target in experiment [8] is Serine/threonine-protein kinase TNNI3K (Homo sapiens) (UniProt Q59H18).
Serine/threonine-protein kinase TNNI3K (Homo sapiens), sequence (Q59H18 whole entry, the tested form may be a part): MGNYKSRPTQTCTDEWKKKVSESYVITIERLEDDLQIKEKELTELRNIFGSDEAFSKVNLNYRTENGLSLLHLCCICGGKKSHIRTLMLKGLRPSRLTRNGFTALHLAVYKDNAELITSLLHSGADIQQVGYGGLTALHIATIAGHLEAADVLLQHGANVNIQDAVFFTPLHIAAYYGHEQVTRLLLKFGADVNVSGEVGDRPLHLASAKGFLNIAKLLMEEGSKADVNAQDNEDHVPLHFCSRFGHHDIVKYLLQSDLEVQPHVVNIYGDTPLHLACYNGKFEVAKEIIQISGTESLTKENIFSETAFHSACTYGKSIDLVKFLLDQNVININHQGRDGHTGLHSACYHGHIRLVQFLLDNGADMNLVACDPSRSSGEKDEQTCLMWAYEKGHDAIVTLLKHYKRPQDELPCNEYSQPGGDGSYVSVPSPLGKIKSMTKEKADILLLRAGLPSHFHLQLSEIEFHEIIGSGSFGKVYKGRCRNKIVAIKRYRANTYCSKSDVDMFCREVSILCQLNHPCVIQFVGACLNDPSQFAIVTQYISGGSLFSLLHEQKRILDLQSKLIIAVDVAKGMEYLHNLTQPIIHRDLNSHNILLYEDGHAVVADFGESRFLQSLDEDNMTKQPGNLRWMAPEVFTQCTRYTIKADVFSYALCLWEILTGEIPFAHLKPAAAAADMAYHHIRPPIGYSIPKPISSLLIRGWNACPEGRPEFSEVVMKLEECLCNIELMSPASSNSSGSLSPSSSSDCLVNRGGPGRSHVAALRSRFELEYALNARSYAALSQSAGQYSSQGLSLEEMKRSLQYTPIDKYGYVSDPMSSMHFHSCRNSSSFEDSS
In experiment [9] the target is Epithelial discoidin domain-containing receptor 1 (Homo sapiens) (UniProt Q08345).
Epithelial discoidin domain-containing receptor 1 (Homo sapiens), sequence (Q08345 whole entry, the tested form may be a part): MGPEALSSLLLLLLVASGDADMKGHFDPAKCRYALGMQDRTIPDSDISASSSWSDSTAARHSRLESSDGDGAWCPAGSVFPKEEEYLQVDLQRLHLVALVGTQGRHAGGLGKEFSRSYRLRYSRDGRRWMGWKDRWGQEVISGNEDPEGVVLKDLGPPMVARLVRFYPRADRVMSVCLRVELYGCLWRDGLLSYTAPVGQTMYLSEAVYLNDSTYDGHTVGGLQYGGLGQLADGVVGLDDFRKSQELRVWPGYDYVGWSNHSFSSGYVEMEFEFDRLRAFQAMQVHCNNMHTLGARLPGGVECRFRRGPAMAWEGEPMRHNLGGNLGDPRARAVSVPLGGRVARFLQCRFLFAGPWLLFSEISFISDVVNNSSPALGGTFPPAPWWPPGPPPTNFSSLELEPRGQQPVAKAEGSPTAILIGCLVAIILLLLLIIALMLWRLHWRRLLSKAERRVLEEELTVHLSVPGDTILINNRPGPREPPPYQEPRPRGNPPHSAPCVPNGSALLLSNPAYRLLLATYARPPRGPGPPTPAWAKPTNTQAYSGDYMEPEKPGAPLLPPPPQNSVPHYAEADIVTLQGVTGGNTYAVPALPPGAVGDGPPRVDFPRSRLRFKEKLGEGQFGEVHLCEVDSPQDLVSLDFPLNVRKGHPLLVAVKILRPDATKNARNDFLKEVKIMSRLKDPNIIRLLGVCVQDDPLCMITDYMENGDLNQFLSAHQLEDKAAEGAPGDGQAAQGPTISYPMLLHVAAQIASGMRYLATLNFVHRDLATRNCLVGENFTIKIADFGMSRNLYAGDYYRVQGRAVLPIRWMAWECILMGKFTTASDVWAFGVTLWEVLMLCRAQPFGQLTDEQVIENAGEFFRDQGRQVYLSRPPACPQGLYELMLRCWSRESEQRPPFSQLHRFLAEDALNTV

Bone morphogenetic protein receptor type-1B (Homo sapiens), sequence (O00238 whole entry): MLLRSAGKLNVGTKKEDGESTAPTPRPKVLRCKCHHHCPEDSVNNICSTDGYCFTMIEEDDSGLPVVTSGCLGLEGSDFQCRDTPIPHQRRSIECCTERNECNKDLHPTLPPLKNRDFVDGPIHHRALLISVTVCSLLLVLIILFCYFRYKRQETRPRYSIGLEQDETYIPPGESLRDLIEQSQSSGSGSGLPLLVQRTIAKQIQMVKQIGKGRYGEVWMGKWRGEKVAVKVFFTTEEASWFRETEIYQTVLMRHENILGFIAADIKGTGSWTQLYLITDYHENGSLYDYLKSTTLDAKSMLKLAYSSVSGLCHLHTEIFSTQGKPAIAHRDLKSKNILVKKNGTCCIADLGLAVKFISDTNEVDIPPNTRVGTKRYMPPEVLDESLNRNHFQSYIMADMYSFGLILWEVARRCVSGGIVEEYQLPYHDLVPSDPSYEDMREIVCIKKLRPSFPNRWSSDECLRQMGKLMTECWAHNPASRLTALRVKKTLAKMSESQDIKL
Dual specificity protein kinase CLK4 (Homo sapiens), sequence (Q9HAZ1 whole entry, looked up): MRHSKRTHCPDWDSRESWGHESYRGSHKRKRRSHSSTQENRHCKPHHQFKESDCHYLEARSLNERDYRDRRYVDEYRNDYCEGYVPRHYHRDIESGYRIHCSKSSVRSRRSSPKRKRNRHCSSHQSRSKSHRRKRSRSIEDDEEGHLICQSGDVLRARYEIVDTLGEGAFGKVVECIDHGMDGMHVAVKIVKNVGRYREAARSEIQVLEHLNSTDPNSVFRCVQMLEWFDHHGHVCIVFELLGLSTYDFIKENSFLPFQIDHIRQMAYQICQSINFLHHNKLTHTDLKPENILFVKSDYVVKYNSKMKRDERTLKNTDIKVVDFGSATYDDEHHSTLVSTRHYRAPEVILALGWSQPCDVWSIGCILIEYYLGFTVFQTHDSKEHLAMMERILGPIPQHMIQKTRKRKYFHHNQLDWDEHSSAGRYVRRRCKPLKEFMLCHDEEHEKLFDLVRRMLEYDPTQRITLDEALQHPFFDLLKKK
Mitogen-activated protein kinase kinase kinase 4 (Homo sapiens), sequence (Q9Y6R4 whole entry): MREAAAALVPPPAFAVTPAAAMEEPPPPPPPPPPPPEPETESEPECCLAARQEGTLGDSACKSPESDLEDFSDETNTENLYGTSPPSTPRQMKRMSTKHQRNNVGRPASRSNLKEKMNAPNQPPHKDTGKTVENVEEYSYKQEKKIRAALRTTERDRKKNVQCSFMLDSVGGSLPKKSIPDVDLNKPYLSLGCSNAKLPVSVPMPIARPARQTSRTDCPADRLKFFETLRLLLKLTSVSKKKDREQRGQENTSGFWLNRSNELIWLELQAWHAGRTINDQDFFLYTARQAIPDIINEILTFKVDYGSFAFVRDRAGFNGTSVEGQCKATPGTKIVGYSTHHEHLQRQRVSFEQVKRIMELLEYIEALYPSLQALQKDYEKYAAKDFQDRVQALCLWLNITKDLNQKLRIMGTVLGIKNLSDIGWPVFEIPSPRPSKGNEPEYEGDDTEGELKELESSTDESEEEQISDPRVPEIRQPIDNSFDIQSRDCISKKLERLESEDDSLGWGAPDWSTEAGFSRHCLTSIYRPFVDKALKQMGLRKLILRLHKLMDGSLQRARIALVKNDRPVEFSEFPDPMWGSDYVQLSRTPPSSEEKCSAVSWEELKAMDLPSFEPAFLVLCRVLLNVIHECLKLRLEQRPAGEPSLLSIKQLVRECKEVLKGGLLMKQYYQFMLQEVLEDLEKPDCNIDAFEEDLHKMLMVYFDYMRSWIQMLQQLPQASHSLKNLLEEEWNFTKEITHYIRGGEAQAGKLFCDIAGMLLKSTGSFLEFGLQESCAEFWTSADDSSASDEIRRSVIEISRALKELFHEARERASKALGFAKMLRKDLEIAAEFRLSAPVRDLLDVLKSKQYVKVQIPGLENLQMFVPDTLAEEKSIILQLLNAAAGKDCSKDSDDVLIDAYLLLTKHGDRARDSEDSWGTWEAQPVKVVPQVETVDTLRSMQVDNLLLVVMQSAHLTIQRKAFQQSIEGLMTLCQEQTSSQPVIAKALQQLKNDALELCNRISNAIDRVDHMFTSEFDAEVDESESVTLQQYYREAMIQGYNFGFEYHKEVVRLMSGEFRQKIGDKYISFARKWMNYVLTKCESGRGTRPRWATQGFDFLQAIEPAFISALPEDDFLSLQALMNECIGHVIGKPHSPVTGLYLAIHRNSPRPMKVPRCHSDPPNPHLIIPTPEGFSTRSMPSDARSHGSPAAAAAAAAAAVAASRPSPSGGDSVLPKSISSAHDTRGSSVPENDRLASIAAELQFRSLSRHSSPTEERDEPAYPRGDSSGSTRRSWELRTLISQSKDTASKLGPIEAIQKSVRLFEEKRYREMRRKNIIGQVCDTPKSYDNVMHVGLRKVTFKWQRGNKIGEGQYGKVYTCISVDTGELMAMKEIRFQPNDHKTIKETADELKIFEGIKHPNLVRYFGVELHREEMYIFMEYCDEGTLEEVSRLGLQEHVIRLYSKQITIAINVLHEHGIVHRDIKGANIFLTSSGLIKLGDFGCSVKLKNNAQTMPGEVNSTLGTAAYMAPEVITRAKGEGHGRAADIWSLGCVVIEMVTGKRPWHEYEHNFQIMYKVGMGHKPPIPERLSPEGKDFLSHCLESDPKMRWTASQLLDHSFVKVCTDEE

Consider `CCc1ccccc1C(=O)Nc1n[nH]c2c(C)c(F)c(C3C(C#N)=C(C)N(C)C(C)=C3C#N)cc12` [BAY-3827], for which the residual activity in [1] was 100%; in [2] it was 96%; in [3], 100%; in [4], 72%; in experiment [5] it was 82%; in [6], 95%. In addition, the residual activity in [7] was 100%; in experiment [8], 87%; in experiment [9], 48%.

As for `CC1=C(C#N)C(c2ccc3c(c2)c(NC(=O)c2ccccc2C)nn3C)C(C#N)=C(C)N1` [BAY-974], the residual activity in [1] was 100%; in experiment [2] it was 91%; in experiment [3], 76%; in experiment [4], 84%; in experiment [5], 84%; in experiment [6] it was 61%. In addition, the residual activity in [7] was 70%; in experiment [8] it was 96%; in experiment [9] it was 74%.
